Results reported in PMC7029871, “Development and validation of a sensitive LC-MS/MS method for the quantitation of IMB-YH-4py5-2H, an antituberculosis candidate, and its application to the pharmacokinetic study” (PLoS ONE, 2020).
Entries after “also recorded” stand apart in the source; their conditions may differ. Read-outs that look alike come from different tables or passages of the source.

Assays:
[1] = Pharmacokinetic study in rats, single oral dose; assay type: in vivo, Sprague-Dawley rats; conditions: for AUC(0-inf) / CL/F / MRT / Tmax / AUC(0-t) / Vd/F / half-life / Cmax: both sexes, Sprague-Dawley; for AUC(0-inf) / CL/F / MRT / Tmax / AUC(0-t) / Vd/F / half-life: plasma, rat; for AUC(0-t): read-out: AUC0-60; for Vd/F: read-out: Vz/F; for half-life: po; for Cmax: rat plasma
Description: A total of 18 adult SD rats were randomly divided into three dosing groups (half male and half female). IMB-YH-4py5-2H suspensions were freshly prepared in 1% (w/v) sodium carboxymethyl cellulose (CMC-Na). The rats were fasted with free access to water for 12 h prior to the oral administration of IMB-YH-4py5-2H at doses of 50, 100 or 200 mg/kg and fasted for another 2 h after administration. Blood samples of 0.2 mL were collected via the post-orbital venous plexus vein at 0.033, 0.083, 0.167, 0.333, 0.5, 0.75, 1, 1.5, 2, 4, 6, 8, 12, 24, 36, 48, and 60 h post dosing into a heparinized tube. Plasma samples, obtained by centrifuging blood at 2300 × g for 15 min at 4°C, were stored at −20°C until analysis.
The pharmacokinetic parameters of IMB-YH-4py5-2H were calculated by WinNonlin (Version 6.1, Pharsight Corp., Mountain View, CA, USA) using a non-compartmental model. Data were expressed as the mean ± standard deviation (S.D.).

[2] = Distribution in plasma, lung homogenate, ELF and AMs after oral dose; assay type: in vivo, Sprague-Dawley rats; conditions: rat, single oral dose 100 mg/kg; for concentration at 8 h / concentration at 30 h / concentration at 0.083 h / concentration at 0.5 h: both sexes, Sprague-Dawley
Description: After the oral administration of 100 mg/kg IMB-YH-4py5-2H, rats from each group (six rats per group and three rats per sex) were sacrificed at 5 min, 0.5 h, 8 h, and 30 h. Rat lungs were collected, rinsed with saline, wiped dry, accurately weighed and homogenized with ultrapure water. The homogenate was kept at −20°C until analysis.
As two representative infectious sites in lower respiratory tract infections, lung epithelial lining fluid (ELF) and alveolar macrophages (AMs) were investigated to determine the distribution of IMB-YH-4py5-2H. Freshly collected rat lungs were lavaged three times from the trachea with 5 mL of ice-cold phosphate buffer (pH 7.4). The lavage fluid was centrifuged at 4°C (650 × g, 5 min) to separate AMs from the ELF, immediately. The cell counts of the resuspended AMs were assessed by using the haemocytometer. The AMs were extracted with 1 mL of 0.1 M NaOH for analysis. To calculate the concentrations of IMB-YH-4py5-2H in ELF and AMs, reported data were employed. As reported, the total volume of ELF was estimated to be 393 μL/rat (~200 g body weight), and the intracellular volume of a single AM was 1166 μm^3 [25]. Based on the reported volume of a single AM, the raw data of IMB-YH-4py5-2H concentrations in AMs, expressed as ng/10^5 cells, were converted to the values with the unit of μg/mL (Eq 1), which was consistent with the unit of concentrations in plasma and ELF and easier for comparison.
CAM (μg/mL) is the concentration of IMB-YH-4py5-2H expressed as μg/mL, CAM (ng/10^5 cells) is the concentration with the unit of ng/10^5 cell, and V is the volume of a single AM (1166 μm^3).
The homogenate, ELF, and AM samples were processed as described in “Sample processing” and injected into the LC-MS/MS system for analysis.

Rat AMs NR8383 cells = test: In vitro uptake study in alveolar macrophages; assay type: cell-based; conditions: 24 h-exposure in 2 μg/mL
Description: Rat AMs NR8383 cells (American Type Culture Collection, Manassas, VA, USA) were grown overnight at 37°C with 5% CO2 in Ham’s F12K medium (Gibco, Grand island, NY, USA) containing 20% fetal bovine serum (FBS, Gibco, Thornton, Australia) in 24-well culture plates (4 × 10^5 cells/well in 1 mL culture medium). After 24 h-exposure to IMB-YH-4py5-2H (2 μg/mL), the culture medium and the subsequent three washes were pooled and processed further for the determination of the extracellular drug concentrations. The cells were then extracted with 0.1 M NaOH to collect the intracellular drug for the LC-MS/MS analysis. All experiments were done in triplicate. The intracellular/extracellular drug concentration ratios were then calculated.

[3] = test system: intracellular M. tuberculosis H37Rv; test: Intracellular activity assay in infected macrophages; assay type: cell-based, Mycobacterium tuberculosis; conditions: for Log10CFU: three-day incubation, infected J744 macrophages, untreated 6.47±0.04
[4] = compared with YH-8; method and reference not given; cited from earlier work
[5] = extracellular concentration of 2 μg/mL

Which AUC(0-inf) ([1]; single oral dose 50 mg/kg) does the source give for `CN(C)C(=O)/C=C/C(=O)c1ccc(-c2ccncc2)cc1.Cl` [IMB-YH-4py5-2H, (E)-N,N-dimethyl-4-oxo-4-(4-(pyridin-4-yl)phenyl)but-2-enamide hydrochloride] here?
The AUC(0-inf) was 1440 ± 370 ng·h/mL.

And the CL/F ([1]; single oral dose 50 mg/kg)?
Its CL/F is 613 mL/min/kg.

And the MRT ([1]; single oral dose 50 mg/kg)?
Its MRT is 7.63 ± 1.58 h.

And the Tmax ([1]; single oral dose 50 mg/kg)?
The Tmax was 0.28 ± 0.08 h.

What about the AUC(0-t) ([1]; single oral dose 50 mg/kg) of the same compound?
The AUC(0-t) was 1400 ± 367 ng·h/mL.

What about the Vd/F ([1]; single oral dose 50 mg/kg) of the same compound?
Its Vd/F is 379 ± 100 L/kg.

What about the AUC(0-inf) ([1]; single oral dose 100 mg/kg) of the same compound?
The AUC(0-inf) was 2850 ± 430 ng·h/mL.

And the CL/F ([1]; single oral dose 100 mg/kg)?
The CL/F was 610 mL/min/kg.

And the MRT ([1]; single oral dose 100 mg/kg)?
The MRT was 7.7 ± 1.43 h.

And the Tmax ([1]; single oral dose 100 mg/kg)?
Its Tmax is 0.44 ± 0.09 h.

What about the AUC(0-t) ([1]; single oral dose 100 mg/kg) of the same compound?
The AUC(0-t) was 2840 ± 425 ng·h/mL.

And the Vd/F ([1]; single oral dose 100 mg/kg)?
The Vd/F was 336 ± 74 L/kg.

What about the AUC(0-inf) ([1]; single oral dose 200 mg/kg) of the same compound?
Its AUC(0-inf) is 5730 ± 664 ng·h/mL.

What about the CL/F ([1]; single oral dose 200 mg/kg) of the same compound?
The CL/F was 589 mL/min/kg.

What about the MRT ([1]; single oral dose 200 mg/kg) of the same compound?
Its MRT is 10.7 ± 0.85 h.

What about the Tmax ([1]; single oral dose 200 mg/kg) of the same compound?
Its Tmax is 0.33 h.

What about the AUC(0-t) ([1]; single oral dose 200 mg/kg) of the same compound?
The AUC(0-t) was 5710 ± 659 ng·h/mL.

And the Vd/F ([1]; single oral dose 200 mg/kg)?
The Vd/F was 394 ± 58 L/kg.

What about the half-life ([1]; 50 mg/kg, single oral dose 50 mg/kg, read-out: t1/2 (converted)) of the same compound?
Its half-life is 7.24 ± 1.61 h.

And the half-life ([1]; 100 mg/kg, single oral dose 100 mg/kg, read-out: t1/2 (converted))?
Its half-life is 6.37 ± 0.93 h.

What about the half-life ([1]; 200 mg/kg, oral, all three dosing groups (50, 100, 200 mg/kg), read-out: half-life (converted)) of the same compound?
The half-life was about 7 h.

And the half-life ([1]; 200 mg/kg, single oral dose 200 mg/kg, read-out: t1/2 (converted))?
Its half-life is 7.71 ± 0.41 h.

And the Cmax ([1]; single oral dose 50 mg/kg)?
Its Cmax is 0.367 ± 0.023 µg/mL.

And the Cmax ([1]; single oral dose 100 mg/kg)?
The Cmax was 0.586 ± 0.0312 µg/mL.

What about the Cmax ([1]; single oral dose 200 mg/kg) of the same compound?
Its Cmax is 1.3 ± 0.194 µg/mL.

And the “AUC relative to that of YH-8” value ([1]; following the same oral dose, YH-8 data ref 20)?
Its value is “approximately 2.5 fold”.

And the concentration at 8 h ([2]; alveolar macrophages (AMs), 8 h, converted with reported volume of a single AM (Eq 1), read-out: Concentration, AMs)?
The concentration at 8 h was 99.7 ± 36.7 µg/mL.

And the concentration at 30 h ([2]; alveolar macrophages (AMs), 30 h, converted with reported volume of a single AM (Eq 1), read-out: Concentration, AMs)?
The concentration at 30 h was 25.3 ± 19.4 µg/mL.

What about the concentration at 0.083 h ([2]; lung epithelial lining fluid (ELF), 0.083 h, ELF volume taken as 393 μL/rat, read-out: Concentration, ELF) of the same compound?
The concentration at 0.083 h was 0.639 ± 0.093 µg/mL.

And the concentration at 0.5 h ([2]; lung epithelial lining fluid (ELF), 0.5 h, ELF volume taken as 393 μL/rat, read-out: Concentration, ELF)?
The concentration at 0.5 h was 1.8 ± 0.264 µg/mL.

What about the concentration at 8 h ([2]; lung epithelial lining fluid (ELF), 8 h, ELF volume taken as 393 μL/rat, read-out: Concentration, ELF) of the same compound?
Its concentration at 8 h is 0.121 ± 0.032 µg/mL.

What about the concentration at 30 h ([2]; lung epithelial lining fluid (ELF), 30 h, ELF volume taken as 393 μL/rat, read-out: Concentration, ELF) of the same compound?
The concentration at 30 h was 0.05 ± 0.045 µg/mL.

What about the concentration at 0.083 h ([2]; lung homogenate, 0.083 h, read-out: Concentration, lung homogenate) of the same compound?
Its concentration at 0.083 h is 4410 ± 607 ng/g.

And the concentration at 0.5 h ([2]; lung homogenate, 0.5 h, read-out: Concentration, lung homogenate)?
Its concentration at 0.5 h is 10900 ± 1960 ng/g.

What about the concentration at 8 h ([2]; lung homogenate, 8 h, read-out: Concentration, lung homogenate) of the same compound?
Its concentration at 8 h is 107 ± 22 ng/g.

And the concentration at 30 h ([2]; lung homogenate, 30 h, read-out: Concentration, lung homogenate)?
Its concentration at 30 h is 11 ± 3 ng/g.

And the concentration at 0.083 h ([2]; plasma, 0.083 h, read-out: Concentration, Plasma)?
Its concentration at 0.083 h is 0.917 ± 0.071 µg/mL.

And the concentration at 0.5 h ([2]; plasma, 0.5 h, read-out: Concentration, Plasma)?
Its concentration at 0.5 h is 1.06 ± 0.192 µg/mL.

And the concentration at 8 h ([2]; plasma, 8 h, read-out: Concentration, Plasma)?
Its concentration at 8 h is 0.155 ± 0.029 µg/mL.

What about the concentration at 30 h ([2]; plasma, 30 h, read-out: Concentration, Plasma) of the same compound?
Its concentration at 30 h is 0.039 ± 0.012 µg/mL.

What about the “Concentration, AMs” value ([2]; 0.083 h) of the same compound?
Its value is 166.763±40.110 ng/10^5 cells.

What about the “Concentration, AMs” value ([2]; 0.083 h, converted with reported volume of a single AM (Eq 1)) of the same compound?
Its value is 1494.295 ± 359.408 µg/mL.

And the “Concentration, AMs” value ([2]; 0.5 h)?
The value was 227.198±35.589 ng/10^5 cells.

And the “Concentration, AMs” value ([2]; 0.5 h, converted with reported volume of a single AM (Eq 1))?
Its value is 2035.827 ± 318.898 µg/mL.

What about the “Concentration, AMs” value ([2]; 8 h) of the same compound?
The value was 11.128±4.099 ng/10^5 cells.

And the “Concentration, AMs” value ([2]; 30 h)?
Its value is 2.823±2.164 ng/10^5 cells.

And the “intracellular to extracellular concentration ratio (I/E ratio)” value (Rat AMs NR8383 cells)?
The value was 133.4±12.5.

What about the Log10CFU ([3]; 0.5 μg/mL) of the same compound?
The Log10CFU was 6.44±0.02 Log10CFU.

What about the Log10CFU ([3]; 1 μg/mL) of the same compound?
Its Log10CFU is 6.40±0.05 Log10CFU.

And the Log10CFU ([3]; 2 μg/mL)?
Its Log10CFU is 6.02±0.11 Log10CFU.

What about the “bacterial density reduction on intracellular M. tuberculosis” value [3, 5] of the same compound?
Its value is about 70%.

And the “reduction on intracellular M. tuberculosis” value [3, 5]?
Its value is 0.45 log10CFU.

And the water solubility [4]?
Its water solubility is “better water solubility; also recorded: improved water solubility”.
